Assay results as given in PubChem BioAssay AID1963433 (Molecular Pharmacology Branch, DTP, NCI, 2024).

System: 772245-204-R-J1-PDC complex spheroid growth
Assay: Anticancer human tumor 772245-204-R-J1-PDC patient-derived rhabdomyosarcoma cell line growth inhibition [Asc]
Conditions: for IC50: curve of first compound; for viability, T/C: stronger effect = lower value
In short: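 Spheroid model: tumor line + HUVEC + hMSC. Single agents and combinations; top conc. at/near clinical Cmax (10 microM if undetermined), half-log dilutions. DMSO stocks at 800-fold test concentration.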

[1] = second compound 0.01 µM, first compound 0.0316 µM
[2] = second compound 0.01 µM, first compound 0.1 µM
[3] = second compound 0.01 µM, first compound 0.316 µM
[4] = second compound 0.01 µM, first compound 1 µM
[5] = second compound 0.01 µM, first compound 3.16 µM
[6] = second compound 0.01 µM, first compound 10 µM
[7] = second compound 0.0316 µM, first compound 0.0316 µM
[8] = second compound 0.0316 µM, first compound 0.1 µM
[9] = second compound 0.0316 µM, first compound 0.316 µM
[10] = second compound 0.0316 µM, first compound 1 µM
[11] = second compound 0.0316 µM, first compound 3.16 µM
[12] = second compound 0.0316 µM, first compound 10 µM
[13] = second compound 0.1 µM, first compound 0.0316 µM
[14] = second compound 0.1 µM, first compound 0.1 µM
[15] = second compound 0.1 µM, first compound 0.316 µM
[16] = second compound 0.1 µM, first compound 1 µM
[17] = second compound 0.1 µM, first compound 3.16 µM
[18] = second compound 0.1 µM, first compound 10 µM
[19] = second compound 0.316 µM, first compound 0.0316 µM
[20] = second compound 0.316 µM, first compound 0.1 µM
[21] = second compound 0.316 µM, first compound 0.316 µM
[22] = second compound 0.316 µM, first compound 1 µM
[23] = second compound 0.316 µM, first compound 3.16 µM
[24] = second compound 0.316 µM, first compound 10 µM
[25] = second compound 1 µM, first compound 0.0316 µM
[26] = second compound 1 µM, first compound 0.1 µM
[27] = second compound 1 µM, first compound 0.316 µM
[28] = second compound 1 µM, first compound 1 µM
[29] = second compound 1 µM, first compound 3.16 µM
[30] = second compound 1 µM, first compound 10 µM
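Note: compound exposure lasted seven days.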
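Throughout, for viability, T/C: 100% = DMSO vehicle control viability.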

## C=C(F)C(=O)N1CCN(c2nc(OCC3CCCN3C)nc3c2CCN(c2cccc4cccc(Cl)c24)C3)CC1CC#N (stereo not given) + CNC(C)C(=O)NC1CN(S(=O)(=O)c2cccc(S(=O)(=O)N3CCC4CCC(C(=O)NC(c5ccccc5)c5ccccc5)N4C(=O)C(NC(=O)C(C)NC)C3)c2)CCC2CCC(C(=O)NC(c3ccccc3)c3ccccc3)N2C1=O
Second compound 0.01 µM
  IC50: 5.51 µM
Second compound 0.0316 µM
  IC50: 6.3 µM
Second compound 0.1 µM
  IC50: 4.84 µM
Second compound 0.316 µM
  IC50: 4.88 µM
Second compound 1 µM
  IC50: 4.84 µM
[1]
  viability, T/C: 98.8%
[2]
  viability, T/C: 102%
[3]
  viability, T/C: 91.3%
[4]
  viability, T/C: 108%
[5]
  viability, T/C: 87.2%
[6]
  viability, T/C: 9.53%
[7]
  viability, T/C: 112%
[8]
  viability, T/C: 105%
[9]
  viability, T/C: 97.5%
[10]
  viability, T/C: 99.7%
[11]
  viability, T/C: 97.6%
[12]
  viability, T/C: 18%
[13]
  viability, T/C: 100%
[14]
  viability, T/C: 91.1%
[15]
  viability, T/C: 95%
[16]
  viability, T/C: 94.4%
[17]
  viability, T/C: 79.2%
[18]
  viability, T/C: 0.25%
[19]
  viability, T/C: 98%
[20]
  viability, T/C: 94.1%
[21]
  viability, T/C: 84.4%
[22]
  viability, T/C: 105%
[23]
  viability, T/C: 80.2%
[24]
  viability, T/C: 0.26%
[25]
  viability, T/C: 93.5%
[26]
  viability, T/C: 106%
[27]
  viability, T/C: 87.1%
[28]
  viability, T/C: 82.9%
[29]
  viability, T/C: 81.4%
[30]
  viability, T/C: 0.98%

## C=CC(=O)N1CCN(c2nc(=O)n(-c3c(C)ccnc3C(C)C)c3nc(-c4c(O)cccc4F)c(F)cc23)C(C)C1 (stereo not given) + CNC(C)C(=O)NC1CN(S(=O)(=O)c2cccc(S(=O)(=O)N3CCC4CCC(C(=O)NC(c5ccccc5)c5ccccc5)N4C(=O)C(NC(=O)C(C)NC)C3)c2)CCC2CCC(C(=O)NC(c3ccccc3)c3ccccc3)N2C1=O
Second compound 0.01 µM
  IC50: > 10 µM
Second compound 0.0316 µM
  IC50: > 10 µM
Second compound 0.1 µM
  IC50: > 10 µM
Second compound 0.316 µM
  IC50: > 10 µM
Second compound 1 µM
  IC50: > 10 µM
[1]
  viability, T/C: 98.5%
[2]
  viability, T/C: 84.7%
[3]
  viability, T/C: 91.6%
[4]
  viability, T/C: 100%
[5]
  viability, T/C: 92%
[6]
  viability, T/C: 89%
[7]
  viability, T/C: 94.4%
[8]
  viability, T/C: 93.6%
[9]
  viability, T/C: 101%
[10]
  viability, T/C: 92.7%
[11]
  viability, T/C: 101%
[12]
  viability, T/C: 90.6%
[13]
  viability, T/C: 92%
[14]
  viability, T/C: 88.9%
[15]
  viability, T/C: 108%
[16]
  viability, T/C: 97.2%
[17]
  viability, T/C: 88.8%
[18]
  viability, T/C: 92.2%
[19]
  viability, T/C: 94.5%
[20]
  viability, T/C: 95.5%
[21]
  viability, T/C: 97.6%
[22]
  viability, T/C: 103%
[23]
  viability, T/C: 95.7%
[24]
  viability, T/C: 80.1%
[25]
  viability, T/C: 106%
[26]
  viability, T/C: 94.3%
[27]
  viability, T/C: 101%
[28]
  viability, T/C: 97.2%
[29]
  viability, T/C: 88.9%
[30]
  viability, T/C: 95%

## CCN1C(C(=O)NC23CCC(C(=O)O)(CC2)CC3)C(c2cccc(Cl)c2F)C2(C(=O)Nc3cc(Cl)ccc32)C12CCCCC2 (stereo not given) + CNC(C)C(=O)NC1CN(S(=O)(=O)c2cccc(S(=O)(=O)N3CCC4CCC(C(=O)NC(c5ccccc5)c5ccccc5)N4C(=O)C(NC(=O)C(C)NC)C3)c2)CCC2CCC(C(=O)NC(c3ccccc3)c3ccccc3)N2C1=O
Second compound 0.01 µM
  IC50: > 3 µM
Second compound 0.0316 µM
  IC50: > 3 µM
Second compound 0.1 µM
  IC50: > 3 µM
Second compound 0.316 µM
  IC50: > 3 µM
Second compound 1 µM
  IC50: > 3 µM
Second compound 0.01 µM, first compound 0.00949 µM
  viability, T/C: 103%
Second compound 0.01 µM, first compound 0.03 µM
  viability, T/C: 106%
Second compound 0.01 µM, first compound 0.0949 µM
  viability, T/C: 111%
Second compound 0.01 µM, first compound 0.3 µM
  viability, T/C: 96.1%
Second compound 0.01 µM, first compound 0.949 µM
  viability, T/C: 80.3%
Second compound 0.01 µM, first compound 3 µM
  viability, T/C: 77.4%
Second compound 0.0316 µM, first compound 0.00949 µM
  viability, T/C: 97.7%
Second compound 0.0316 µM, first compound 0.03 µM
  viability, T/C: 105%
Second compound 0.0316 µM, first compound 0.0949 µM
  viability, T/C: 98.2%
Second compound 0.0316 µM, first compound 0.3 µM
  viability, T/C: 90.9%
Second compound 0.0316 µM, first compound 0.949 µM
  viability, T/C: 93.3%
Second compound 0.0316 µM, first compound 3 µM
  viability, T/C: 75.7%
Second compound 0.1 µM, first compound 0.00949 µM
  viability, T/C: 97.9%
Second compound 0.1 µM, first compound 0.03 µM
  viability, T/C: 102%
Second compound 0.1 µM, first compound 0.0949 µM
  viability, T/C: 88.5%
Second compound 0.1 µM, first compound 0.3 µM
  viability, T/C: 91%
Second compound 0.1 µM, first compound 0.949 µM
  viability, T/C: 82.2%
Second compound 0.1 µM, first compound 3 µM
  viability, T/C: 65.2%
Second compound 0.316 µM, first compound 0.00949 µM
  viability, T/C: 96.6%
Second compound 0.316 µM, first compound 0.03 µM
  viability, T/C: 96.4%
Second compound 0.316 µM, first compound 0.0949 µM
  viability, T/C: 98.6%
Second compound 0.316 µM, first compound 0.3 µM
  viability, T/C: 92.3%
Second compound 0.316 µM, first compound 0.949 µM
  viability, T/C: 86.8%
Second compound 0.316 µM, first compound 3 µM
  viability, T/C: 105%
Second compound 1 µM, first compound 0.00949 µM
  viability, T/C: 103%
Second compound 1 µM, first compound 0.03 µM
  viability, T/C: 105%
Second compound 1 µM, first compound 0.0949 µM
  viability, T/C: 96.2%
Second compound 1 µM, first compound 0.3 µM
  viability, T/C: 89.1%
Second compound 1 µM, first compound 0.949 µM
  viability, T/C: 86.4%
Second compound 1 µM, first compound 3 µM
  viability, T/C: 76.3%

## COc1c(OCCCN2CCOCC2)ccc2c3n(c(=NC(=O)c4cnc(N)nc4)nc12)CCN3 + CNC(C)C(=O)NC1CN(S(=O)(=O)c2cccc(S(=O)(=O)N3CCC4CCC(C(=O)NC(c5ccccc5)c5ccccc5)N4C(=O)C(NC(=O)C(C)NC)C3)c2)CCC2CCC(C(=O)NC(c3ccccc3)c3ccccc3)N2C1=O
Second compound 0.01 µM
  IC50: 0.193 µM
Second compound 0.0316 µM
  IC50: 0.0895 µM
Second compound 0.1 µM
  IC50: 0.114 µM
Second compound 0.316 µM
  IC50: 0.0726 µM
Second compound 1 µM
  IC50: 0.111 µM
Second compound 0.01 µM, first compound 0.00316 µM
  viability, T/C: 108%
Second compound 0.01 µM, first compound 0.01 µM
  viability, T/C: 95.2%
[1]
  viability, T/C: 81.7%
[2]
  viability, T/C: 64.3%
[3]
  viability, T/C: 38.4%
[4]
  viability, T/C: 26.9%
Second compound 0.0316 µM, first compound 0.00316 µM
  viability, T/C: 93.7%
Second compound 0.0316 µM, first compound 0.01 µM
  viability, T/C: 112%
[7]
  viability, T/C: 78.2%
[8]
  viability, T/C: 47.9%
[9]
  viability, T/C: 38.8%
[10]
  viability, T/C: 27.2%
Second compound 0.1 µM, first compound 0.00316 µM
  viability, T/C: 97.4%
Second compound 0.1 µM, first compound 0.01 µM
  viability, T/C: 97.2%
[13]
  viability, T/C: 68.1%
[14]
  viability, T/C: 53.8%
[15]
  viability, T/C: 35.4%
[16]
  viability, T/C: 23.2%
Second compound 0.316 µM, first compound 0.00316 µM
  viability, T/C: 92.9%
Second compound 0.316 µM, first compound 0.01 µM
  viability, T/C: 93.8%
[19]
  viability, T/C: 73.4%
[20]
  viability, T/C: 40.1%
[21]
  viability, T/C: 30.7%
[22]
  viability, T/C: 22%
Second compound 1 µM, first compound 0.00316 µM
  viability, T/C: 86%
Second compound 1 µM, first compound 0.01 µM
  viability, T/C: 96.6%
[25]
  viability, T/C: 75.7%
[26]
  viability, T/C: 51.3%
[27]
  viability, T/C: 32.5%
[28]
  viability, T/C: 21.6%
